Earlier results on one molecule are cited in patent US20110252694A1, “COMPOSITIONS FOR DRIP FUMIGATION” (priority 2010, published 2011).

Series [1] deals with weeds, nematodes, and soil pathogens. The note with it: compared with methyl bromide.
The next series relates to plant. The note with it: when used in effective concentrations.

As to `CI` [Methyl Iodide, methyl iodide], the “combating weeds, nematodes, and soil pathogens” value in series [1] is “equal to or better than methyl bromide”. Also, the plant toxicity result in the series on plant was “does not result in plant toxicity”.
